Experimental data taken from patent US20230134935A1, “MEDICAL USE OF DARIDOREXANT” (Idorsia Pharmaceuticals Ltd, priority 2020, published 2023).
“Also recorded” adds a separate entry of the source.

Assays:
[1] = test system: subjects with insomnia disorder; settings: cited from earlier work; for visual analog scales (VASs) on morning sleepiness, daytime alertness, and daytime ability to function: compared with placebo at week 2, higher doses, not sustained at week 4
[2] = in vivo; cited from earlier work
[3] = test system: adult and elderly subjects with insomnia disorder; experiment: Phase 3 double-blind placebo-controlled polysomnography study, Example B (NCT03575104), 10 mg and 25 mg; assay type: in vivo, human
Protocol: (§1) Daridorexant entered two phase 3 multi-center, double-blind, randomized, placebo-controlled, parallel-group, polysomnography study to assess the efficacy and safety of ACT-541468 in adult and elderly subjects with insomnia disorder. (NCT03545191, EudraCT Number: 2017-004642-20 testing strengths of 25 mg and 50 mg; and NCT03575104, EudraCT Number: 2017-004643-20 testing strengths of 10 mg and 25 mg). To assess daytime functioning, said phase 3 studies investigate as a secondary endpoint the IDSIQ sleepiness domain score, using as a dedicated patient reported outcome (PRO) instrument the Insomnia Daytime Symptoms and Impacts Questionnaire (IDSIQ) (S. Hudgens et al., The Patient—Patient-Centered Outcomes Research (2021) 14:249-268). The instrument is based on the Daytime Insomnia Symptom Scale (DISS) (Buysse et al., Sleep Medicine 8 (2007) 198-208; Buysse et al., SLEEP 29(9) (2006) 1155-1173) and designed to characterize and compare daytime symptoms in insomnia. The IDSIQ is structured in three domains (alertness/cognition; (negative) mood; tiredness/sleepiness) and contains overall 14 items, each based on an 11-point numeric rating scale. For each domain score the total rating score of all associated items is considered.
Example B): Multi-Center, Double-Blind, Randomized, Placebo-Controlled, Parallelgroup, Polysomnography Study to Assess the Efficacy and Safety of ACT-541468 in Adult and Elderly Subjects with Insomnia Disorder
The study (NCT03575104) is conducted in analogy to the study of Example A), using daridorexant strengths of 10 mg and 25 mg.

[4] = test system: adult and elderly subjects with insomnia disorder; experiment: Phase 3 double-blind placebo-controlled polysomnography study, Example A (NCT03545191), 25 mg and 50 mg; assay type: in vivo, human; settings: for IDSIQ sleepiness domain score: month 1 and month 3
Protocol: as §1
Example A): Multi-Center, Double-Blind, Randomized, Placebo-Controlled, Parallelgroup, Polysomnography Study to Assess the Efficacy and Safety of ACT-541468 in Adult and Elderly Subjects with Insomnia Disorder
The study comprises the following 3 phases: the screening phase, the treatment phase, and the safety follow-up phase. The screening phase starts with the signature of the informed consent form at Visit 1 and ends at Randomization (Visit 4), provided the subject fulfills all the eligibility criteria. It includes the Screening period and the Run-in period. The screening phase lasts […]. The Screening period starts with Visit 1 and ends at Visit 2. During the Screening period, the investigator verifies eligibility criteria and eligible subjects perform a one-night polysomnography (PSG) assessment. The Screening period lasts 7 to 18 days to allow time to perform all required procedures at Visit 1, the PSG assessment and collect the minimum number of eDiary entries (i.e., 7 days) between Visit 1 and Visit 2. The Run-in period starts with Visit 2 and ends at Randomization (i.e., Visit 4). At Visit 2 eligible subjects are allocated a single-blinded placebo treatment that is taken daily. During the Run-in period subjects come to the site for Visit 3, which consists of 2 PSG nights and is performed when the subject has completed the eDiary for at least 7 days and eligibility is confirmed. The Run-in period lasts 13 to 24 days, to allow collection of the minimum number of eDiary entries (i.e., 7 days), perform 2 PSG nights at Visit 3, and receive the eligibility confirmation from the PSG central reader. The double-blind (DB) treatment phase lasts 3 months. It starts at Randomization (Visit 4). DB study treatment is taken daily. A safety telephone call is performed at Visit 5 to collect information about adverse events (AEs) and concomitant medications. Sleep parameters of each subject are objectively assessed with 2 consecutive PSG nights at Visit 6 and Visit 8. A safety visit without PSG night is performed at Visit 7. An eDiary is completed every day during the treatment phase. End-of-Double-Blind-Treatment (EODBT) is reached in the second morning of Visit 8. The safety follow-up phase starts after EODBT. It consists of a single-blind placebo run-out period of 7 days and a safety follow-up period. The Run-out period starts in the evening of Visit 9. Visit 9 consists of one PSG night on single-blind placebo treatment. Visit 9 is followed by 6 days at home with single-blind placebo treatment. The eDiary is completed every day during the Run-out period. The end of the Run-out period (End-of-Treatment [EOT]) is reached after all visit assessments have been performed at Visit 10. […]

rat = settings: cited from earlier work
[5] = test system: animal model of agitation; settings: in vivo; cited from earlier work
[6] = 10 mg, month 1 and month 3, vs placebo
[7] = 25 mg, month 1 and month 3, vs placebo
[8] = 25 mg and 50 mg once daily in the evening, Month 1 and Month 3, vs placebo
[9] = both doses (25 mg, 50 mg), all timepoints, vs placebo

Q: With `Cc1ccc(-c2nc3ccc(C)cn3c2CC(=O)N(C)C)cc1` [zolpidem, reference compound] as the compound, how does the “visual analog scales (VASs) on morning sleepiness, daytime alertness, and daytime ability to function” value [1] read?
A: Its value is “pattern was also true”.

Q: For `Cc1ccc(-n2nccn2)c(C(=O)N2CCN(c3nc4cc(Cl)ccc4o3)CC[C@H]2C)c1` [suvorexant], which “halflife (t½)” value [2] is on record?
A: Its value is 12 h.

Q: What does the source list for `COc1ccc(-n2nccn2)c(C(=O)N2CCC[C@@]2(C)c2nc3c(C)c(Cl)ccc3[nH]2)c1` [daridorexant, [(S)-2-(5-Chloro-4-methyl-1H-benzoimidazol-2-yl)-2-methyl-pyrrolidin-1-yl]-(5-methoxy-2-[1,2,3]triazol-2-yl-phenyl)-methanone]?
A: WASO [3, 6]: not; sTST [3, 6]: not; IDSIQ sleepiness domain ([3]; 25 mg, both time points): numerical trend; LPS after log-transformation ([3]; 25 mg, month 1 and month 3): significantly reduced; also recorded: significant after log-transformation; WASO [3, 7]: significantly decreased; sTST [3, 7]: increased; decrease in LPS ([3]; 25 mg, vs placebo, without log-transformation): did not reach statistical significance; change from baseline in LPS (latency to persistent sleep, sleep onset) [4, 8]: significant reductions; change from baseline in WASO (wake time after sleep onset, sleep maintenance) [4, 8]: significant reductions; change from baseline in subjective total sleep time (sTST) [4, 8]: increased the subjective total sleep time (sTST) significantly; incidence of somnolence ([4]; 25 mg and 50 mg vs placebo): low (lower with daridorexant 50 mg versus placebo) and not dose dependent; IDSIQ sleepiness domain score ([4]; 25 mg, vs placebo): numerical trend; also recorded: numerical improvement; falls ([4]; 50 mg dose group compared to placebo): Fewer falls; IDSIQ sleepiness domain score ([4]; 50 mg, vs placebo): significantly improved; daytime functioning over time ([4]; 3 months of treatment): gradual improvement; improvements in sleep (WASO, LPS, sTST) over time ([4]; 3 months of treatment): maintained over 3 months; also recorded: maintained over three months; tolerability / safety profile ([4]; adult and elderly patients): well tolerated; IDSIQ alert/cognition domain score [4, 9]: decreased; also recorded: improved; IDSIQ mood domain score [4, 9]: decreased; also recorded: improved; IDSIQ total score [4, 9]: decreased; also recorded: improved; rate of adverse events ([4]; both treatment doses vs placebo): comparable between placebo and daridorexant; next-morning sleepiness effect assessed by visual analog scale (VAS) ([4]; every morning): no next-morning sleepiness effect; most frequent treatment-emergent adverse events (TEAEs) ([4]; in vivo): nasophyringitis and headache; suicide, suicidal ideation, or self-injury ([4]; in vivo): no suicide, suicidal ideation, or self-injury; number of serious adverse events ([4]; placebo group compared to daridorexant treatment groups): higher in the placebo group; rebound insomnia or withdrawal symptoms upon discontinuation ([4]; upon discontinuation): no rebound insomnia, or withdrawal symptoms; morning sleepiness (sleepiness the following day) ([1]; any dose vs placebo): no difference; visual analog scales (VASs) on morning sleepiness, daytime alertness, and daytime ability to function [1]: nonsignificant increases; wake time after sleep onset ([1]; phase 2, subjects with insomnia disorder): dose-dependent reduction; next-morning residual drug effects ([1]; up to and including the highest dose (50 mg)): absence of such effects; crossing of the blood-brain barrier (rat): cross the blood-brain barrier; sleep promotion (effects on active wake, home cage activity, NREM sleep, REM sleep) (rat): promote sleep; activity in animal model of agitation [5]: active
